Results published in patent publication US7897175B2, “Dosage forms comprising a CETP inhibitors and an HMG-CoA reductase inhibitor” (Bend Research, Inc., priority 2002, dated 2011).

Columns and labels:
[1] = Aqueous solubility of torcetrapib; assay type: physicochemical; conditions: aqueous solution (not specified further), water, about 22° C.
Method: The CETP inhibitor may be any compound capable of inhibiting the cholesteryl ester transfer protein. Solid amorphous dispersions are particularly useful for CETP inhibitors that have sufficiently low aqueous solubility, low bioavailability or slow rate of absorption such that it is desirable to increase their concentration in an aqueous environment of use. […] Many CETP inhibitors have even lower solubilities (some even less than 0.1 μg/mL), and require dramatic concentration enhancement to be sufficiently bioavailable upon oral dosing for effective plasma concentrations to be reached at practical doses.
CETP inhibitors, in particular torcetrapib, and methods for preparing such compounds are disclosed in detail in U.S. Pat. Nos. 6,197,786 and 6,313,142, in PCT Application Nos. WO 01/40190A1, WO 02/088085A2, and WO 02/088069A2, the disclosures of which are herein incorporated by reference. Torcetrapib has an unusually low solubility in aqueous environments such as the lumenal fluid of the human GI tract. The aqueous solubility of torceptrapib is less than about 0.04 μg/ml. Torcetrapib must be presented to the GI tract in a solubility-enhanced form in order to achieve a sufficient drug concentration in the GI tract in order to achieve sufficient absorption into the blood to elicit the desired therapeutic effect.

[2] = In vitro dissolution test using a microcentrifuge method (PBS); assay type: physicochemical; conditions: for AUC90 (area under the aqueous concentration versus time curve after 90 minutes) / C1200 (concentration at 1200 minutes) / MDC90 (maximum concentration of torcetrapib in solution during the first 90 minutes): receptor solution PBS; for Torcetrapib Concentration / AUC: PBS pH 6.5, 37° C.; for Torcetrapib Concentration: 1000 μg/mL if all drug dissolved
Method: The spray-dried solid amorphous dispersion was evaluated in an in vitro dissolution test using a microcentrifuge method. In this test, 7.2 mg of the spray-dried solid amorphous dispersion was placed into a microcentrifuge tube. The tube was placed in a 37° C. sonicating bath, and 1.8 mL phosphate buffered saline (PBS) at pH 6.5 and 290 mOsm/kg was added, resulting in a torcetrapib concentration of 1000 μg/mL if all of the drug had dissolved. The sample was quickly mixed using a vortex mixer for about 60 seconds. The sample was centrifuged at 13,000 G at 37° C. for 1 minute. The resulting supernatant solution was then sampled and diluted 1:6 (by volume) with methanol and then analyzed by high-performance liquid chromatography (HPLC). The contents of the tube was mixed on the vortex mixer and allowed to stand undisturbed at 37° C. until the next sample was taken. Samples were collected at 4, 10, 20, 40, 90, and 1200 minutes. The concentrations of drug obtained in these samples are shown in Table 1, which represent the average of duplicate tests.
As a control, an in vitro dissolution test was performed using the procedures described above except that 1.8 mg of crystalline drug was used.
The spray-dried solid amorphous dispersion was evaluated in an in vitro dissolution test using a microcentrifuge method. In this test, 4.5 mg of the spray -dried solid amorphous dispersion was placed into a microcentrifuge tube. The tube was placed in a 37° C. sonicating bath, and 1.8 mL phosphate buffered saline (PBS) at ph 6.5 and 290 mOsm/kg was added, resulting in a torcetrapib concentration of 1000 μg/mL if all of the drug dissolved. The sample was quickly mixed using a vortex mixer for about 60 seconds. The sample was centrifuged at 13,000 G at 37° C. for 1 minute. The resilting superatant solution was then sampled and diluted 1:6 (by volume) with methanol and then analyzed by high-performance liquid chromatography (HPLC). The contents of the tube was mixed on the vortex mixer and allowed to stand undisturbed at 37° C. until the next sample was taken. Samples were collected at 4, 10, 20, 40, 90, and 1200 minutes. The concentrations of drug obtained in these samples are shown in Table 9, which represent the average of duplicate tests. The results using crystalline drug are included in Table 9 for […]

[3] = Example 1 test (dispersion 25 wt % torcetrapib)
[4] = Example 12 test (dispersion 40 wt % torcetrapib, HPMCAS-HG)
[5] = time 0 min, Example 1 test (dispersion 25 wt % torcetrapib, HPMCAS-MG)
[6] = time 0 min, Example 12 test (dispersion 40 wt % torcetrapib, HPMCAS-HG)
[7] = time 4 min, Example 1 test (dispersion 25 wt % torcetrapib, HPMCAS-MG)
[8] = time 4 min, Example 12 test (dispersion 40 wt % torcetrapib, HPMCAS-HG)
[9] = time 10 min, Example 1 test (dispersion 25 wt % torcetrapib, HPMCAS-MG)
[10] = time 10 min, Example 12 test (dispersion 40 wt % torcetrapib, HPMCAS-HG)
[11] = time 20 min, Example 1 test (dispersion 25 wt % torcetrapib, HPMCAS-MG)
[12] = time 20 min, Example 12 test (dispersion 40 wt % torcetrapib, HPMCAS-HG)
[13] = time 40 min, Example 1 test (dispersion 25 wt % torcetrapib, HPMCAS-MG)
[14] = time 40 min, Example 12 test (dispersion 40 wt % torcetrapib, HPMCAS-HG)
[15] = time 90 min, Example 1 test (dispersion 25 wt % torcetrapib, HPMCAS-MG)
[16] = time 90 min, Example 12 test (dispersion 40 wt % torcetrapib, HPMCAS-HG)
[17] = time 1200 min, Example 1 test (dispersion 25 wt % torcetrapib, HPMCAS-MG)
[18] = time 1200 min, Example 12 test (dispersion 40 wt % torcetrapib, HPMCAS-HG)

CCOC(=O)N1c2ccc(C(F)(F)F)cc2[C@@H](N(Cc2cc(C(F)(F)F)cc(C(F)(F)F)c2)C(=O)OC)C[C@H]1CC [Crystalline Drug, [2R,4S]-4-[(3,5-bis-trifluoromethyl-benzyl)-methoxycarbonyl-amino]-2-ethyl-6-trifluoromethyl-3,4-dihydro-2H-quinoline-1-carboxylic acid ethyl ester]
solubility [1]: < 0.04 µg/mL
AUC90 (area under the aqueous concentration versus time curve after 90 minutes) [2, 3]: <88 min-μg/mL
C1200 (concentration at 1200 minutes) [2, 3]: <1 µg/mL
MDC90 (maximum concentration of torcetrapib in solution during the first 90 minutes) [2, 3]: <1 µg/mL
AUC90 (area under the aqueous concentration versus time curve after 90 minutes) [2, 4]: <88 min-μg/mL
C1200 (concentration at 1200 minutes) [2, 4]: <1 µg/mL
MDC90 (maximum concentration of torcetrapib in solution during the first 90 minutes) [2, 4]: <1 µg/mL
Torcetrapib Concentration [2, 5]: 0 µg/mL
Torcetrapib Concentration [2, 6]: 0 µg/mL
AUC [2, 5]: 0 min-μg/mL
AUC [2, 6]: 0 min-μg/mL
Torcetrapib Concentration [2, 7]: <1 µg/mL
Torcetrapib Concentration [2, 8]: <1 µg/mL
AUC [2, 7]: <2 min-μg/mL
AUC [2, 8]: <2 min-μg/mL
Torcetrapib Concentration [2, 9]: <1 µg/mL
Torcetrapib Concentration [2, 10]: <1 µg/mL
AUC [2, 9]: <8 min-μg/mL
AUC [2, 10]: <8 min-μg/mL
Torcetrapib Concentration [2, 11]: <1 µg/mL
Torcetrapib Concentration [2, 12]: <1 µg/mL
AUC [2, 11]: <18 min-μg/mL
AUC [2, 12]: <18 min-μg/mL
Torcetrapib Concentration [2, 13]: <1 µg/mL
Torcetrapib Concentration [2, 14]: <1 µg/mL
AUC [2, 13]: <38 min-μg/mL
AUC [2, 14]: <38 min-μg/mL
Torcetrapib Concentration [2, 15]: <1 µg/mL
Torcetrapib Concentration [2, 16]: <1 µg/mL
AUC [2, 15]: <88 min-μg/mL
AUC [2, 16]: <88 min-μg/mL
Torcetrapib Concentration [2, 17]: <1 µg/mL
Torcetrapib Concentration [2, 18]: <1 µg/mL
AUC [2, 17]: <1,200 min-μg/mL
AUC [2, 18]: <1,200 min-μg/mL
